# Measured values published in US20260042764A1, “COMPOSITIONS AND METHODS FOR INHIBITION OF KRAS” (TheRas, Inc., priority 2022, published 2026).
# Experiments:
# SW620 cells (KRAS G12V) = assay: Cell-based pERK HTRF assay in SW620 cell (Biological Example 4); settings: pERK HTRF
# Procedure, shortened: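 SW620 seeded in RPMI/10% FBS, next day dosed 4 h (top 1 μM, half-log, 9 pts, 0.25% DMSO). Lysed, pERK by d2/Eu cryptate HTRF, 4–24 h RT, 615 nm read.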
# [1] = target: T1, Avi-KRAS WT (1-169) GppNHp/RAF1 RBD-3xFLAG (52-151) (Homo sapiens, UniProt P01116); assay: Raf1-KRAS WT-GppNHP disruption HTRF assay (Biological Example 1); format: binding
# T1 construct: Avi-KRAS WT (1-169)
# T1 sequence (P01116 1-169 isoform P01116-2): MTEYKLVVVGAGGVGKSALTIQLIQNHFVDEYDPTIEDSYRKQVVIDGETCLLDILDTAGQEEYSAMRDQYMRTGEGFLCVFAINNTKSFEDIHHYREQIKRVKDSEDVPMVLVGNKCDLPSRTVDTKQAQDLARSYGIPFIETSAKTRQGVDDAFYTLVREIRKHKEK
# Procedure, shortened: (§1)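 Read-out is HTRF signal of the KRAS–RAF1 RBD complex, reported as percentage of activity relative to DMSO (100%). Protein mix and detection reagents each incubated 1 h at room temperature with 700 rpm shaking. Buffer: 50 mM Tris pH 7.5, 100 mM NaCl, 5 mM MgCl2, 0.1% BSA, 0.01% Tween, 10% DMSO.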
# GP2d cells (KRAS G12D) = assay: Cell-based pERK HTRF assay in GP2d cell (Biological Example 2); settings: GP2d (KRAS G12D) cells, pERK HTRF
# Procedure, shortened: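 Treatment with test compounds lasted one hour in DMEM containing 10% FBS, with DMSO held at 0.25%. Dilution series: 9 points, half-log spacing, highest 1 μM or 100 nM. Lysates were incubated 4–24 h at room temperature with antibody mix, then HTRF was read at 320 nm excitation.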
# [2] = target: T2, Avi-KRAS G12R (1-169) GppNHp/RAF1 RBD-3xFLAG (52-151) (Homo sapiens, UniProt P01116, G12R); assay: Raf1-KRAS G12R-GppNHP disruption HTRF assay (Biological Example 1); format: binding
# T2 construct: Avi-KRAS G12R (1-169)
# T2 sequence (P01116 1-169 isoform P01116-2 G12R): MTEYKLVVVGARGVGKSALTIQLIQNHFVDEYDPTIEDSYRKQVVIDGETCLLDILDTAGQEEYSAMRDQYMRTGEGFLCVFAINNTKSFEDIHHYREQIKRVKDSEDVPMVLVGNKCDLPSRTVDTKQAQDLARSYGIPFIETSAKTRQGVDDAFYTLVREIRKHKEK
# Procedure, shortened: as §1
# [3] = target: T3, Avi-KRAS G12D (1-169) GppNHp/RAF1 RBD-3xFLAG (52-151) (Homo sapiens, UniProt P01116, G12D); assay: Raf1-KRAS G12D-GppNHP disruption HTRF assay (Biological Example 1); format: binding
# T3 construct: Avi-KRAS G12D (1-169)
# T3 sequence (P01116 1-169 isoform P01116-2 G12D): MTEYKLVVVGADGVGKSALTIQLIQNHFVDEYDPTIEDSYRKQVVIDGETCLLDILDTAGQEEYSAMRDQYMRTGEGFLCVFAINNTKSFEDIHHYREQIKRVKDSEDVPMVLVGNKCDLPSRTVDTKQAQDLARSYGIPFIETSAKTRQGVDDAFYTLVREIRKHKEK
# Procedure, shortened: as §1
# [4] = target: T4, Avi-KRAS G12V (1-169) GppNHp/RAF1 RBD-3xFLAG (52-151) (Homo sapiens, UniProt P01116, G12V); assay: Raf1-KRAS G12V-GppNHP disruption HTRF assay (Biological Example 1); format: binding
# T4 construct: Avi-KRAS G12V (1-169)
# T4 sequence (P01116 1-169 isoform P01116-2 G12V): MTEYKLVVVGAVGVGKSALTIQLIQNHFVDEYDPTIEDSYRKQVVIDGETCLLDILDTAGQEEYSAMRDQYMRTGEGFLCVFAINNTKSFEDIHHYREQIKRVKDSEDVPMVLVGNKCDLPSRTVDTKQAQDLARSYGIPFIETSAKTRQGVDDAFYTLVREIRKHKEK
# Procedure, shortened: as §1
# [5] = Homo sapiens, SW-620, SW620 (KRAS G12V) cells
# [6] = Homo sapiens, SW-620, SW620 (KRAS G12V) cells, class symbols
# [7] = KRAS WT, GppNHp-loaded, class symbols
# [8] = KRAS G12R, GppNHp-loaded, class symbols
# [9] = KRAS G12D, GppNHp-loaded, class symbols
# [10] = KRAS G12V, GppNHp-loaded, class symbols
# [11] = KRAS WT, GppNHp-loaded, Table 11
# [12] = KRAS G12R, GppNHp-loaded, Table 11
# [13] = KRAS G12D, GppNHp-loaded, Table 11
# [14] = KRAS G12V, GppNHp-loaded, Table 11
Structure (SMILES),IC50 (SW620 cells (KRAS G12V); [5]) [nM],IC50 ([1]; KRAS WT-GppNHp/RAF1 RBD HTRF) [nM],IC50 (GP2d cells (KRAS G12D); GP2d) [nM],IC50 ([2]; KRAS G12R-GppNHp/RAF1 RBD HTRF) [nM],IC50 ([3]; KRAS G12D-GppNHp/RAF1 RBD HTRF) [nM],IC50 ([4]; KRAS G12V-GppNHp/RAF1 RBD HTRF) [nM],IC50 (SW620 cells (KRAS G12V); [6]) [nM],"IC50 [1, 7] [nM]","IC50 (GP2d cells (KRAS G12D); GP2d, class symbols) [nM]","IC50 [2, 8] [nM]","IC50 [3, 9] [nM]","IC50 [4, 10] [nM]",other results
CCC(=O)N1CC[C@@H](N(C)c2nc(OC[C@@]34CCCN3C[C@H](F)C4)nc3c(F)c(-c4ccc(F)c5sc(N)c(C#N)c45)c(C(F)(F)F)cc23)[C@@H]1C [Compound 299],< 100,100 to 1000,< 100,1000 to 10000,100 to 1000,1000 to 10000,,,,,,,
CC(=O)N1C[C@H](O)[C@@H](N(C)c2nc(OC[C@@]34CCCN3C[C@H](F)C4)nc3c(F)c(-c4ccc(F)c5sc(N)c(C#N)c45)c(C(F)(F)F)cc23)C1 [Compound 347],100 to 1000,100 to 1000,< 100,100 to 1000,< 100,100 to 1000,,,,,,,
"CN(c1nc(OC[C@@]23CCCN2C[C@H](F)C3)nc2c(F)c(-c3ccc(F)c4sc(N)c(C#N)c34)c(C(F)(F)F)cc12)[C@H]1CCS(=O)(=O)C1 (single isomer, unassigned) [Compound 220]",,,,,,,,,,,,,"IC50 (SW620 cells (KRAS G12V); SW620 (KRAS G12V) cells): > 1000 nM; IC50 [1, 11]: > 10000 nM; IC50 (GP2d cells (KRAS G12D)): > 1000 nM; IC50 [2, 12]: > 10000 nM; IC50 [3, 13]: > 10000 nM; IC50 [4, 14]: > 10000 nM"
CC(=O)N1CCN(c2nc(OC[C@@]34CCCN3C[C@H](F)C4)nc3c(F)c(-c4ccc(F)c5sc(N)c(C#N)c45)c(C(F)(F)F)cc23)C2CC21 (stereo partly drawn) [Compound 358],< 100,1000 to 10000,< 100,1000 to 10000,1000 to 10000,1000 to 10000,,,,,,,
"N#Cc1c(N)sc2c(F)ccc(-c3c(C(F)(F)F)cc4c(N5CC6CC(C5)O6)nc(OC[C@@]56CCCN5C[C@H](F)C6)nc4c3F)c12 (single isomer, unassigned) [Compound 276]",,,,,,,,,,,,,"IC50 (SW620 cells (KRAS G12V); SW620 (KRAS G12V) cells): 100 to 1000 nM; IC50 [1, 11]: 1000 to 10000 nM; IC50 (GP2d cells (KRAS G12D)): > 1000 nM; IC50 [2, 12]: 1000 to 10000 nM; IC50 [3, 13]: 1000 to 10000 nM; IC50 [4, 14]: > 10000 nM"
N#Cc1c(N)sc2c(F)ccc(-c3c(C(F)(F)F)cc4c(N5CCCN6C(=O)CC[C@H]6C5)nc(OC[C@@]56CCCN5C[C@H](F)C6)nc4c3F)c12 [Compound 487],< 100,100 to 1000,< 100,1000 to 10000,100 to 1000,1000 to 10000,,,,,,,
CC1(O)CCN(c2nc(OC[C@@]34CCCN3C[C@H](F)C4)nc3c(F)c(-c4ccc(F)c5sc(N)c(C#N)c45)c(C(F)(F)F)cc23)CC1 [Compound 228],100 to 1000,,100 to 1000,,,,,,,,,,"IC50 [1, 11]: 100 to 1000 nM; IC50 [2, 12]: 1000 to 10000 nM; IC50 [3, 13]: 100 to 1000 nM; IC50 [4, 14]: 1000 to 10000 nM"

# Now from value to molecule, other results behind:
IC50 (SW620 cells (KRAS G12V); [5]) [nM],IC50 ([1]; KRAS WT-GppNHp/RAF1 RBD HTRF) [nM],IC50 (GP2d cells (KRAS G12D); GP2d) [nM],IC50 ([2]; KRAS G12R-GppNHp/RAF1 RBD HTRF) [nM],IC50 ([3]; KRAS G12D-GppNHp/RAF1 RBD HTRF) [nM],IC50 ([4]; KRAS G12V-GppNHp/RAF1 RBD HTRF) [nM],IC50 (SW620 cells (KRAS G12V); [6]) [nM],"IC50 [1, 7] [nM]","IC50 (GP2d cells (KRAS G12D); GP2d, class symbols) [nM]","IC50 [2, 8] [nM]","IC50 [3, 9] [nM]","IC50 [4, 10] [nM]",Structure (SMILES),other results
,,,,,,< 100,100 to 1000,< 100,100 to 1000,100 to 1000,100 to 1000,CN(C)C(=O)c1nn2c(c1C1CC1)CN(c1nc(OCC34CCCN3CC(F)C4)nc3c(F)c(-c4ccc(F)c5sc(N)c(C#N)c45)c(C(F)(F)F)cc13)CC2 (stereo not drawn) [Compound 738],
,,,,,,< 100,< 100,< 100,< 100,< 100,< 100,"[2H]C1([2H])OC(=O)N2C[C@@H](N(CC)c3nc(OC[C@@]45CCCN4C[C@H](F)C5)nc4c(F)c(-c5ccc(F)c6sc(N)c(C#N)c56)c(C(F)(F)F)cc34)C[C@H]21 (atropisomer, axis not shown) [Compound 760]",
,,,,,,100 to 1000,100 to 1000,100 to 1000,1000 to 10000,1000 to 10000,1000 to 10000,"CCN(c1nc(OC[C@@]23CCCN2C[C@H](F)C3)nc2c(F)c(-c3ccc(F)c4sc(N)c(C#N)c34)c(C(F)(F)F)cc12)[C@H]1CCN(C(=O)OC)[C@H]1C (atropisomer, axis not shown) [Compound 799]",
,,,,,,< 100,100 to 1000,< 100,100 to 1000,100 to 1000,100 to 1000,"CCN(c1nc(OC[C@@]23CCCN2C[C@H](F)C3)nc2c(F)c(-c3ccc(F)c4sc(N)c(C#N)c34)c(C(F)(F)F)cc12)[C@H]1CCN(C(=O)[C@@H]2CC23CC3)C1 (atropisomer, axis not shown) [Compound 774]",
